The values below come from patent publication US8859589B2 (priority 2008, dated 2014).

Several values for one entry are separate records, joined by “and”; a condition that tells them apart may be missing. Equal entries are not always repeated. Where two headings read alike, the source gives them in different places. Some results are limits rather than exact numbers.

One series deals with Cowpox Virus-BR. Also noted: species or system BALB/c mice. The following applies: mouse, in vivo.
Series [1] relates to wild-type VV (Vaccinia Virus). It counts as cell-based.
The subject of another series is CV Cowpox Virus. It counts as cell-based.
The test system of series [2] is thymidine kinase deficient mutant strain of VV. It counts as cell-based, Vaccinia Virus.
Series [3] concerns dUTPase deficient mutant strain of VV. The series is classed as cell-based, Vaccinia Virus.
For a further series, the system named is VV. Also noted: species or system mice. The settings on record: mouse, in vivo.
The next series has as its system CV. Also noted: species or system mice. The settings on record: mouse, in vivo.
The next series concerns VV or CV. Also noted: species or system mice. The following applies: mouse, in vivo.
A short description of series [4]: in vitro.
Series [5] is described as follows: in vitro. This is another data set of the same source.

With `Nc1ccn(C[C@@H](CO)OCP(=O)(O)O)c(=O)n1` [Cidofovir, reference compound], in the series on Cowpox Virus-BR, the “Mortality Number” value was 0/15 and 0/14; the “Mortality Percent” value is 0%.

In the case of `O=c1[nH]c(=O)n([C@H]2C[C@H](O)[C@@H](CO)S2)cc1I` [5-iodo-4′-thio-2′-deoxyuridine], in [1], the “effective concentration against wild-type VV” value is reported as “less than 1.0 μM”. Also, the “effective concentration against CV” value with CV Cowpox Virus is “less than 1.0 μM”. For the same compound, the “antiviral activity against mutant strain of VV” value in series [2] and in series [3] was “retained its antiviral activity” throughout. The protection from mortality entry was “completely protected” in the series with VV and “complete protection from mortality” in the series with CV. Also, the reduction in mortality entry in the series with VV or CV was “significant reduction in mortality”. The “MDD ± STDEV (Mean Day of Death)” value with Cowpox Virus-BR was 18.0 and 16.0 ± 2.8 and 14.0 and 14.0 ± 5.7. Further, in the series with Cowpox Virus-BR, the “Mortality Number” value was 0/15 and 0/13 and 1/15 and 2/15. Besides, the CC50 in the series “in vitro [4]” and in “in vitro [5]” was greater than 100 µM throughout.
